{"source": "patent EP2397458A1", "about": "“Organic salts and co-crystals of phenylbutyric acid” (Lunamed AG, priority 2010, dated 2011)", "key": {"[1]": {"experiment": "Aqueous solubility determination (saturated solution, HPLC; pH of saturated solution)", "format": "physicochemical", "conditions": "for pH of the corresponding saturated solution: saturated aqueous solution after 24 h at 25°C; for solubility at 24 h: doubly distilled water, after 24 h of equilibration at 25°C", "method": "(§1) For this measurement approximately 1.0 mL of doubly distilled water was added to 18 mg of the substance according Example 1 to be measured. The resulting suspension was equilibrated in a temperature-controlled Eppendorf Thermomixer Comfort shaker for 24 h at 25°C at a shaking rate of 600 rpm. The solid phase was recovered by filter centrifugation (0.10-µm PVDF membrane) and examined by FT-Raman spectroscopy. Concentrations in the filtrate (i.e., saturated solutions) were determined by HPLC (see below). The pH of the saturated solution was determined with a Metrohm 713 pH meter. HPLC: TSP instrument with P4000 pump, AS3000 autosampler, SCM1000 degasser, UV3000 detector, and PC1000 Vers. 4.1 software. Table 4: HPLC method used for solubility determinations.\nas §1, with “8:” for “4:”"}, "[2]": {"experiment": "DVS / hygroscopy measurement", "format": "physicochemical", "conditions": "for hygroscopy: DVS humidity program 50 → 95 → 0 → 50% r.h.", "method": "For the measurement of hygroscopy of the salt a Projekt Messtechnik Sorptions Prüfsystem SPS 11 - 100n was used. (Hygroscopy of the phenylbutyric acid for comparison was measured with the Surface Measurement Systems DVS-1 ). The salt sample was placed on an aluminium (SPS 11) holder (for phenylbutyric acid on a platinum holder (DVS-1)) on top of a microbalance and allowed to equilibrate for 2 h at 50% r.h. before starting the pre-defined humidity program: • (1)2hat50%r.h. • (2) 50 → 95% r.h. (5%/h); 5 h at 95% r.h. • (3) 95 → 0% r.h. (5%/h); 5 h at 0% r.h. • (4) 0 → 50% r.h. (5%/h); 2 h at 50% r.h.\nFor the measurement of hygroscopy of the salt a Projekt Messtechnik Sorptions Prüfsystem SPS 11 - 100n was used. (Hygroscopy of the phenylbutyric acid for comparison was measured with the Surface Measurement Systems DVS-1). The salt sample was placed on an aluminium (SPS 11) holder (for phenylbutyric acid on a platinum holder (DVS-1)) on top of a microbalance and allowed to equilibrate for 2 h at 50% r.h. before starting the pre-defined humidity program: • (1)2hat50%r.h. • (2) 50 → 95% r.h. (5%/h); 5 h at 95% r.h. • (3) 95 → 0% r.h. (5%/h); 5 h at 0% r.h. • (4) 0 → 50% r.h. (5%/h); 2 h at 50% r.h. […] However, raising the relative humidity further from 80 to 95% r.h. results in a steep gain of -10 wt.-%. Upon lowering the relative humidity, the mass decreases only slightly (by -2.2 w1.-%) until a relative humidity of -60 % r.h. is reached. Then a steep loss of -10 wt.-% occurs until the mass of the starting material is reached at -45% r.h. […] Upon lowering the relative humidity from 50 to 0% r.h. a mass loss of -0.3 wt.-% is observed, but it is fully reversible. At the end of the cycle the sample had essentially the same mass as the starting material. […] A sesquihydrate of the hemi-benzathine salt (1 :0.5:1.5 phenylbutyrate:benzathine:H2O) has a theoretical water content of 9.5 wt.-%. A reversible hydrate formation occurred during the DVS experiment."}}, "note": "Where a name gives a salt, the structure may show the parent alone."}
{"smiles": "O=C(O)CCCc1ccccc1", "note": "[Example 1, 4-Phenylbutyrate-Mono-Benethamine salt]", "values": [{"measurement": "pH of the corresponding saturated solution", "setting": "[1]", "result": 7.2}, {"measurement": "solubility at 24 h", "setting": "[1]; water, solid residue Raman spectrum unchanged", "result": 1900, "unit": "µg/mL"}, {"measurement": "hygroscopy", "setting": "[2]", "result": "not hygroscopic"}, {"measurement": "hygroscopy", "setting": "[2]; listed as 4-Phenylbutyrate-Mono-Benethamine salt", "result": "non-hygroscopic"}]}
{"smiles": "O=C(O)CCCc1ccccc1", "note": "[Example 2, 4-Phenylbutyrate-Hemi-Benzathine salt]", "values": [{"measurement": "solubility at 24 h", "setting": "[1]; value corresponds to a hydrate of the benzathine salt, not to the anhydrous form", "result": 1700, "unit": "µg/mL"}, {"measurement": "pH of the corresponding saturated solution", "setting": "[1]; hydrate formed and precipitated during equilibration", "result": 6.2}, {"measurement": "gradual mass gain", "setting": "[2]; DVS, increasing the relative humidity from 50 to 80% r.h.", "result": -1.3, "unit": "wt.-%"}, {"measurement": "mass loss", "setting": "[2]; DVS, lowering the relative humidity from 50 to 0% r.h., fully reversible", "result": -0.3, "unit": "wt.-%"}, {"measurement": "mass decrease", "setting": "[2]; DVS, lowering the relative humidity from 95% until -60 % r.h. is reached", "result": -2.2, "unit": "w1.-%"}, {"measurement": "steep loss (mass)", "setting": "[2]; DVS, lowering the relative humidity from -60 % r.h. until -45% r.h. (mass of starting material reached)", "result": -10, "unit": "wt.-%"}, {"measurement": "steep gain (mass)", "setting": "[2]; DVS, raising the relative humidity from 80 to 95% r.h.", "result": -10, "unit": "wt.-%"}]}
